Experimental data published in patent US8008304B2, “Substituted propiolic acid amides and their use for producing drugs” (Grüenthal GmbH, priority 2005, dated 2011).
Counter-ions that a name gives are not always drawn.

Tested on: not listed separately
Assay: Formaline test in rats (phase 2, chronic pain component)
Assay type: in vivo
Conditions: phase 2 (21 to 27 min after formaline injection)
Procedure: III. Formaline Test in Rats: The formaline test (Dubuisson, D. and Dennis, S. G., 1977, Pain, 4, 161-174) represents a model for acute and chronic pain. A biphasic nociceptive reaction, which is recorded by observation of three clearly differentiable behavioural patterns, is induced by a single formaline injection into the dorsal side of a rear paw in freely mobile test animals. The reaction has two phases: Phase 1=Immediate reaction (duration up to 10 min; paw shaking, licking), Phase 2=Late reaction (after a rest phase; likewise, paw shaking, licking; duration up to 60 min). The 1st phase reflects a direct stimulation of the peripheral nocisensors with high spinal nociceptive input or glutamate release (acute pain phase); the 2nd phase reflects a spinal and peripheral hypersensitisation (chronic pain phase). In the investigations presented here, the chronic pain component (phase 2) was evaluated. Formaline with a volume of 50 μl and a concentration of 5% is administered subcutaneously into the dorsal side of the right rear paw of each animal. The substances to be tested are administered for 30 min before the formaline injection orally (p.o.), intravenously (i.v.) or intraperitoneally (i.p.). […]

Row | Compound | Formaline test (rat) i.v. Reduction in nociceptive behaviour over control at 10 mg/kg [%]
1 | C[C@@H]1CN(c2cscn2)CCN1C(=O)C#Cc1cccc(Cl)c1 [Example 4, (R)-2-methyl-1-(3-(3-chloro-phenyl)-propiolyl)-4-(thiazol-4-yl)-piperazine] | 75

Target: T1, mGluR5 receptor (Sus scrofa, UniProt I3LUI7)
T1 construct: from tissue; host or cells: pig brain halves without medulla, cerebellum and pons
Assay: Inhibition of [3H]-MPEP bond in the mGluR5 receptor bond assay (pig brain homogenate)
Assay type: binding
Conditions: 450 μg protein from pig brain homogenate, 5 nM [3H]-MPEP, 60 min, room temperature
Procedure: Substituted propiolic acid amides of the above-mentioned general formula I are likewise particularly preferred, which, after 60 minutes of incubation in 450 μg protein from pig brain homogenate at a temperature between 20° C. and 25° C. in a concentration of less than 2000 nM, preferably of less than 1000 nM, particularly preferably of less than 700 nM, very particularly preferably of less than 100 nM, even more preferably of less than 30 nM, bring about a 50-percent displacement of [^3H]-2-methyl-6-(3-methoxyphenyl)-ethynylpyridine which is present in a concentration of 5 nM.
Thereby, the determination of the displacement of [^3H]-2-methyl-6-(3-methoxyphenyl)-ethynylpyridine is performed as described in the section Pharmacological Methods, I. Method for determining the inhibition of [^3H]-MPEP-bonding in the mGluR5 receptor bonding assay.
I. Method for Determining the Inhibition of the [^3H]-MPEP Bond in the mGluR5 Receptor Bond Assay
Pig brain homogenate is produced by homogenisation (Polytron PT 3000, Kinematica AG, 10,000 rpm for 90 seconds) of pig brain halves without medulla, cerebellum and pons in buffer pH 8.0 (30 mM Hepes, Sigma, order no. H3375+1 tablet complete to 100 ml, Roche Diagnostics, order no. 1836145) in ratio 1:20 (brain weight/volume) and differential centrifugation at 900×g and 40,000×g. In each case, 450 μg protein from brain homogenate is incubated with 5 nM ^3[H]-MPEP (Tocris, order no. R1212) (MPEP=2-methyl-6-(3-methoxyphenyl)-ethynylpyridine) in 250 μl incubation batches in 96 well microtitration plates and the compounds to be tested (10 μM in the test) in buffer (as above) at room temperature for 60 min.
Thereafter, the batches are filtered with the help of a Brandel Cell Harvester (Brandel, TYP Robotic 9600) on unifilter plates with glass fibre filter mats (Perkin Elmer, order no. 6005177) and subsequently washed with buffer (as above) 3 times with in each case 250 μl per sample. The filter plates are subsequently dried for 60 min at 55° C. 30 μL Ultima Gold™ scintillator is subsequently added per well (Packard BioScience, order no. 6013159) and the samples are measured after 3 hours on the β-counter (Mikrobeta, Perkin Elmer). The unspecific bond is determined by addition of 10 μM MPEP (Tocris, order no. 1212).

T1 sequence (I3LUI7 19-1212): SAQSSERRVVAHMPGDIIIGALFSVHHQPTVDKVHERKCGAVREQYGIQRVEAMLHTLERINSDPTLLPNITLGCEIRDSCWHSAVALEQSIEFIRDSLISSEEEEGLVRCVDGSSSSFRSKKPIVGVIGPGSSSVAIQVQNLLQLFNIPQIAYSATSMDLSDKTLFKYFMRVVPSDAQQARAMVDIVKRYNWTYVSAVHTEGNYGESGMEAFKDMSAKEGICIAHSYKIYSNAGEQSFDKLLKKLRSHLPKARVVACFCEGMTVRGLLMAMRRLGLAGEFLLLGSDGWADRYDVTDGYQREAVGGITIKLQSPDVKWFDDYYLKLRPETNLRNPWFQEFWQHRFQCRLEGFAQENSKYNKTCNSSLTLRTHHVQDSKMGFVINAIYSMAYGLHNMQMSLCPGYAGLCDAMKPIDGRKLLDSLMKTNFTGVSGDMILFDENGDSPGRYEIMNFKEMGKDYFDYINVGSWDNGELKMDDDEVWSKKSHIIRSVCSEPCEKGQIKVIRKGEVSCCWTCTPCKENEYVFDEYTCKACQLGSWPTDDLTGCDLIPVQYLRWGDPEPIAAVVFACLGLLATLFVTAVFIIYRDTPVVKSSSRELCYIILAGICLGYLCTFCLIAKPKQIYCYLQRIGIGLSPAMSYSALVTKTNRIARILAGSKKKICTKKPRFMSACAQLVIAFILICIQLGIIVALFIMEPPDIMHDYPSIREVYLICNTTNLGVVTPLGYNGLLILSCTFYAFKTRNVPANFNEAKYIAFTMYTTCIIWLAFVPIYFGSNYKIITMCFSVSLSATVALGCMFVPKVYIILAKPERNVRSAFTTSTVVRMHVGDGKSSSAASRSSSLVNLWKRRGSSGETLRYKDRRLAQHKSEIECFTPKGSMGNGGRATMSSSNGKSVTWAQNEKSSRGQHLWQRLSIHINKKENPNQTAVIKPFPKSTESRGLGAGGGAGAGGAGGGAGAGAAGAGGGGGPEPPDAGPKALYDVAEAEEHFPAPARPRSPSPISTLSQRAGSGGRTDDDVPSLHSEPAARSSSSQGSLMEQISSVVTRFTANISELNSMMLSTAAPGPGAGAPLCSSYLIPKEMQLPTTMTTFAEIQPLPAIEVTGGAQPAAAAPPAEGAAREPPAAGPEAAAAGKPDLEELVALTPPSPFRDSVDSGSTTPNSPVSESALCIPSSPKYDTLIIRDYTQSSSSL

Row | Compound | IC50 [nM]
2 | CN(CCNC(=O)C#Cc1cccc(Cl)c1)c1nncs1 [Example 6, 3-(3-chlorophenyl)-N-(2-(methyl(1,3,4-thiadiazol-2-yl)amino)ethyl)propiolamide] | 21
3 | Cn1ccnc1N1CCN(C(=O)C#Cc2ccccc2)CC1 [Example 3, 1-(3-phenyl-propiolyl)-4-(1-methyl-imidazol-2-yl)-piperazine hydrochloride] | 4840
4 | CC1CN(c2nncs2)CCN1C(=O)C#Cc1cccc(Cl)c1 (stereo not drawn) [Example 5, 2-methyl 1-(3-(3-chloro-phenyl)-propiolyl)-4-(1,3,4-thiadiazol-2-yl)-piperazine] | 27
5 | CN(CCNC(=O)C#Cc1cccc(Cl)c1)c1cncs1 [Example 7, 3-(3-chlorophenyl)-N-(2-(methyl(thiazol-5-yl)amino)ethyl)propiolamide] | 0.5
6 | O=C(C#Cc1ccccc1)N1CCN(c2ccsc2)CC1 [Example 1, 1-(3-phenyl-propiolyl)-4-(thiophene-3-yl)-piperazine hydrochloride] | 1890
7 | O=C(C#Cc1ccccc1)N1CCN(c2cscn2)CC1 [Example 2, 1-(3-Phenyl-propiolyl)-4-(thiazol-4-yl)-piperazine] | 630
8 | C[C@@H]1CN(c2cscn2)CCN1C(=O)C#Cc1cccc(Cl)c1 [Example 4, (R)-2-methyl-1-(3-(3-chloro-phenyl)-propiolyl)-4-(thiazol-4-yl)-piperazine] | 16
9 | CN(CCNC(=O)C#Cc1cccc(Cl)c1)c1nccn1C [Example 8, 3-(3-chlorophenyl)-N-(2-(methyl(1-methyl-1H-imidazol-2-yl)amino)ethyl)propiolamide] | 350
